Literature values, collected in patent publication US8748087B2, “Sequence of reverse transcriptase gene and method of use” (Fudan University, priority 2005, dated 2014).

Tested on: HBV
Conditions: patients with chronic hepatitis B

For interferon alpha, the overall response rates is listed as “less than 30%”.
